The record followed here is patent US7968548B2, “Melanocortin receptor-specific piperazine compounds with diamine groups” (Palatin Technologies, Inc., priority 2005, dated 2011).

The target of test [1] is T1, MC3-R (Homo sapiens, UniProt P41968).
T1 construct: expressed in transfected cells; host or cells: HEK-293
Put plainly: Competitive inhibition binding assay using [I125]-NDP-α-MSH, HEK-293 membranes, recombinant hMC3-R. The settings on record: for inhibition at 1 µM: 1 μM compound. How it is done:
(§1) A competitive inhibition binding assay was performed using membrane homogenates prepared from HEK-293 cells that express recombinant hMC4-R, hMC3-R, or hMC5-R, and from B-16 mouse melanoma cells (containing endogenous MC1-R). In some instances, HEK-293 cells that express recombinant hMC1-R were employed. In the examples that follow, all MC3-R, MC4-R and MC5-R values are for human recombinant receptors. MC1-R values are for B-16 mouse melanoma cells, unless the heading is “hMC1-R”, in which case the value is for human recombinant MC1-R. Assays were performed in 96 well GF/B Millipore multiscreen filtration plates (MAFB NOB10) pre-coated with 0.5% bovine serum albumin (Fraction V). […] After incubation for 60 minutes at 37° C., the assay mixture was filtered and the membranes washed three times with ice-cold buffer. Filters were dried and counted in a gamma counter for bound radioactivity. […] Maximal specific binding (100%) was defined as the difference in radioactivity (cpm) bound to cell membranes in the absence and presence of 1 μM NDP-α-MSH. […] Each assay was conducted in triplicate and the actual mean values are described, with results less than 0% reported as 0%. Ki values for test compounds were determined using Graph-Pad Prism® curve-fitting software.

The target of test [2] is T2, MC1-R (Mus musculus, UniProt Q01727).
T2 construct: from B-16 mouse melanoma cells (containing endogenous MC1-R); endogenous in cells; host or cells: B-16 mouse melanoma cells (membrane homogenates)
T2 sequence (Q01727 whole entry): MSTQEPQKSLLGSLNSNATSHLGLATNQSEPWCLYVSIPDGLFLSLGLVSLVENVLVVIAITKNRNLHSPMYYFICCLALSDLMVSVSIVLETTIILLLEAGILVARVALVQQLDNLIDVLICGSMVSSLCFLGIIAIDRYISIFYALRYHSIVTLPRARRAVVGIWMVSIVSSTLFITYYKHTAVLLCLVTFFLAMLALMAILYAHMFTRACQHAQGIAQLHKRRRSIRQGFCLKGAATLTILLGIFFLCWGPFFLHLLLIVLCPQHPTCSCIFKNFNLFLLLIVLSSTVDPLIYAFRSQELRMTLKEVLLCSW
Briefly: Competitive inhibition binding assay using [I125]-NDP-α-MSH, B-16 mouse melanoma cell membranes. The note with it: B-16 mouse melanoma cells; for inhibition at 1 µM: 1 μM compound. How it is done:
as §1

Test [3] addresses T3, MC5-R (Homo sapiens, UniProt P33032).
T3 construct: expressed in transfected cells; host or cells: HEK-293
Put plainly: Competitive inhibition binding assay using [I125]-NDP-α-MSH, HEK-293 membranes, recombinant hMC5-R. The note with it: for inhibition at 1 µM: 1 μM compound. As for the experimental part:
as §1

Test [4] has as its target T4, MC4-R (Homo sapiens, UniProt P32245). Briefly: Competitive inhibition binding assay using [I125]-NDP-α-MSH, HEK-293 membranes, recombinant hMC4-R. Further details: expressed in transfected cells; host or cells: HEK-293. The note with it: for inhibition at 1 µM: 1 μM compound. As for the experimental part:
as §1

The target in test [5] is T4, MC4-R. Briefly: Assay for agonist activity: cAMP accumulation in HEK-293 cells that express MC4-R. The test is classed as cell-based. The arrangement: expressed in transfected cells; host or cells: HEK-293. The note with it: HEK293; cell line that expresses MC4-R; relative to NDP-α-MSH; read-out: maximum effect observed, % of the maximum achieved with NDP-α-MSH (cAMP). As for the experimental part: Assay for agonist activity. Accumulation of intracellular cAMP was examined as a measure of the ability of the test compounds to elicit a functional response in HEK-293 cells that express MC4-R. Confluent HEK-293 cells that express recombinant hMC4-R were detached from culture plates by incubation in enzyme-free cell dissociation buffer. Dispersed cells were suspended in Earle's Balanced Salt Solution containing 10 mM HEPES (pH 7.5), 1 mM MgCl2, 1 mM glutamine, 0.5% albumin and 0.3 mM 3-isobutyl-1-methyl-xanthine (IBMX), a phosphodiesterase inhibitor. The cells were plated in 96-well plates at a density of 0.5×10^5 cells per well and pre-incubated for 30 minutes. Cells were exposed for 1 hour at 37° C. to test compounds dissolved in DMSO (final DMSO concentration of 1%) at a concentration range of 0.05-5000 nM in a total assay volume of 200 μL. NDP-α-MSH was used as the reference agonist. At the end of the incubation period, cells were disrupted by the addition of 50 μL of lysis buffer (cAMP EIA kit, Amersham) followed by vigorous pipetting. Levels of cAMP in the lysates were determined using a cAMP EIA kit (Amersham). Data analysis was performed by nonlinear regression analysis with Graph-Pad Prism® software. The maximum efficacies of the test compounds were compared to that achieved by the reference melanocortin agonist NDP-αMSH.
In general terms: Changes in cAMP serve as a functional read-out for many G protein-coupled receptors.

The nature of test [6]: Mouse model IP feeding studies in fasted animals (food intake). The test is classed as in vivo. The settings on record: 3 mg/kg, 20 hours. How it is done: (§2) Food intake and body weight after IN and IP dosing. Changes in food intake and body weight were evaluated for selected compounds. Male C57BL/6 mice were obtained from Jackson labs (Bar Harbor, Me.). Animals were individually housed in conventional plexiglass hanging cages and maintained on a controlled 12 hour on/off light cycle. Water and pelleted (Harlan Teklad 2018 18% Protein Rodent Diet) food was provided ad libitum. The mice were dosed IP (by intraperitoneal injection) after a 24 hour fast or IN (by intranasal administration) with vehicle or selected compounds (0.1-3 mg/kg, and in some cases up to 10 mg/kg). All animals were dosed once a day (or up to four consecutive days) at the start of the “lights off” period. The changes in food intake for the 4 hour and 20 hour period after dosing relative to control animals administered vehicle were determined. Body weights were determine 4 hours prior to dosing and 20 hours after dosing, and the change in body weight relative to control animals administered vehicle were determined.

Test [7] addresses T4, MC4-R. Put plainly: Competitive binding assay using [I125]-AgRP (83-132). Further details: expressed in transfected cells. The note with it: hMC4-R membranes. How it is done:
Competitive binding assay using [I^125]—AgRP (83-132). Competitive binding studies using [I^125]—AgRP (83-132) were carried out using membrane homogenates isolated from cells that express hMC4-R. The assays were performed in 96-well GF/B Millipore multiscreen filtration plates (MAFB NOB10) pre-coated with 0.5% bovine serum albumin (Fraction V). The assay mixture contained 25 mM HEPES buffer (pH 7.5) with 100 mM NaCl, 2 mM CaCl2, 2 mM MgCl2, 0.3 mM 1,10-phenanthroline, 0.5% bovine serum albumin, membrane homogenates, radioligand [I^125]—AgRP (83-132) (Perkin Elmer) and increasing concentrations of compounds in a total volume of 200 μL. Binding was measured at radioligand concentrations of 0.2 nM. After incubating for 1 hour at 37° C., the reaction mixture was filtered and washed with assay buffer containing 500 mM NaCl. The dried discs were punched out from the plate and counted on a gamma counter. […] Ki values for test compounds were determined using Graph-Pad Prism® curve-fitting software.

Test [8] can be described thus: Mouse model IN feeding studies (body weight). The class given is in vivo. The settings on record: 20 hours. As for the experimental part: as §2
Test [9] has as its target T5, hMC1-R (Homo sapiens, UniProt Q01726).
T5 construct: expressed in transfected cells; host or cells: HEK-293
Briefly: Competitive inhibition binding assay using [I125]-NDP-α-MSH, HEK-293 membranes, recombinant hMC1-R. The settings on record: human recombinant MC1-R. How it is done: as §1

T1 sequence (P41968 whole entry): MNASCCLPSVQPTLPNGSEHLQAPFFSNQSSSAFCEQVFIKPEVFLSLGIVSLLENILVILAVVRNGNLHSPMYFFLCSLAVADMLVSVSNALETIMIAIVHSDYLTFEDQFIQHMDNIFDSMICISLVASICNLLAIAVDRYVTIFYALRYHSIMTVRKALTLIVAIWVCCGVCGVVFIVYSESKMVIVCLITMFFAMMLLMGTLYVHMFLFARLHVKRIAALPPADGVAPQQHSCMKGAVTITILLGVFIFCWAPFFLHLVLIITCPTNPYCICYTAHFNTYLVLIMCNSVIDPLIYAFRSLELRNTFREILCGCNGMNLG
T3 sequence (P33032 whole entry): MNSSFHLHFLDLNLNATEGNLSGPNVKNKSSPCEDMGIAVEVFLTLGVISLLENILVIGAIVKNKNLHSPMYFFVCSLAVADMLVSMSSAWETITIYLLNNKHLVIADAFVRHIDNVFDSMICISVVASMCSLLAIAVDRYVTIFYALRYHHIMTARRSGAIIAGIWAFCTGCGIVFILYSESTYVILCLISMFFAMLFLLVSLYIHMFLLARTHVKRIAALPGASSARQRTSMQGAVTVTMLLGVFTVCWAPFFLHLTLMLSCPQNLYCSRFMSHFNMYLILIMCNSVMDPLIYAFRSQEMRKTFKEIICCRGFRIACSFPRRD
T4 sequence (P32245 whole entry): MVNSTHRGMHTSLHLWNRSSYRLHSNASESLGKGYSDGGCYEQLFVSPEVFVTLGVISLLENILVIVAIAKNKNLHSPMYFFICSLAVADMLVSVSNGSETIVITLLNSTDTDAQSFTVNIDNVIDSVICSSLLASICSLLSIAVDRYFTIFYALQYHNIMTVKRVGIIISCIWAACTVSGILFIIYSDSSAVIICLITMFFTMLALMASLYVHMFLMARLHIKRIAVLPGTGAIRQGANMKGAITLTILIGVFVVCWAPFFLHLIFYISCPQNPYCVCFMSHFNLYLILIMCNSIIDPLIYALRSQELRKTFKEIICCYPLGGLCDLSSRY
T5 sequence (Q01726 whole entry): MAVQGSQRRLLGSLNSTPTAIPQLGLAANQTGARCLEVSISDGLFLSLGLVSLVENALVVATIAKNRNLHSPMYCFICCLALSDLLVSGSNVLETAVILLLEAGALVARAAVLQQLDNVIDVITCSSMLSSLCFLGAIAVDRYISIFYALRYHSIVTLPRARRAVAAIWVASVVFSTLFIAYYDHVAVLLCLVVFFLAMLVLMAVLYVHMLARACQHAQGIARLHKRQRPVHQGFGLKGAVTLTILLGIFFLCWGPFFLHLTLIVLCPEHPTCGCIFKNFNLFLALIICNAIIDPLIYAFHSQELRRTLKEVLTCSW

As a reminder, the Ki is a measure of affinity in units of concentration, obtained from inhibition or displacement. Broadly, the inhibition is the relative decrease from the control value, in per cent. As to `CC(C)C[C@@H]1CN(C(=O)[C@H](N)Cc2ccc(Cl)cc2Cl)[C@@H](CCCCNCCN)CN1C(=O)Cc1ccc2ccccc2c1` [Example 1, (R)-2-Amino-1-[(2S,5R)-2-[4-(2-amino-ethylamino)-butyl]-5-isobutyl-4-(2-naphthalen-2-yl-acetyl)-piperazin-1-yl]-3-(2,4-dichloro-phenyl)-propan-1-one], the Ki in [1] was found to be 250 nM; in [2], 102 nM; in [3], 301 nM; in test [4] it was 18 nM. The inhibition at 1 µM came to 71% in test [1], 55% in test [2], 68% in [3] and 98% in [4]. For the same compound, the Emax in test [5] worked out at 61%.

`CC(C)C[C@@H]1CN(C[C@H](N)Cc2ccc(Cl)cc2Cl)[C@@H](CCCCNCCN)CN1C(=O)Cc1ccc2ccccc2c1` [Example 2, 1-{(2R,5S)-4-[(R)-2-Amino-3-(2,4-dichloro-phenyl)-propyl]-5-[4-(2-amino-ethylamino)-butyl]-2-isobutyl-piperazin-1-yl}-2-naphthalen-2-yl-ethanone]: the “average decrease in food intake compared to control animals” value in [6] turned out to be 28%. In addition, the Ki in test [1] stood at 190 nM; in [2], 558 nM; in [3], 143 nM; in test [4], 23 nM; in test [7], 72 nM. Moreover, the Emax in [5] was determined as 16%. The entries for the “average decrease in body weight compared to control animals” value in test [8] (0.1 mg/kg), in test [8] (0.3 mg/kg) and in test [8] (1 mg/kg) were 2.5%, 3% and 4.7%, respectively.

In the case of `Cc1ccc(C[C@H](CN2C[C@@H](C)N(C(=O)Cc3ccc4ccccc4c3)C[C@@H]2CCCN(C)C2CCN(C)C2)N(C)C)c(C)c1` (stereo partly drawn) [Example 7, 1-((2R,5S)-4-[(R)-2-Dimethylamino-3-(2,4-dimethyl-phenyl)-propyl]-2-methyl-5-{3-[methyl-(1-methyl-pyrrolidin-3-yl)-amino]-propyl}-piperazin-1-yl)-2-aphthalen-2-yl-ethanone], the inhibition at 1 µM is 0% in test [1], 4% in test [2], 44% in [3] and 56% in test [4].

In the case of `Cc1ccc(C[C@@H](N)CN2C[C@@H](C)N(C(=O)Cc3ccc4ccccc4c3)C[C@@H]2CCCNC2CCCCC2N)c(C)c1` (stereo partly drawn) [Example 6, 1-{(2R,5S)-5-[3-(2-Amino-cyclohexylamino)-propyl]-4-[(R)-2-amino-3-(2,4-dimethyl-phenyl)-propyl]-2-methyl-piperazin-1-yl}-2-naphthalen-2-yl-ethanone], the Ki was 535 nM in test [1], 580 nM in test [2], 38 nM in [3] and 255 nM in test [4]. The inhibition at 1 µM in test [1] came out at 47%; in test [2], 33%; in test [3] it was 98%; in test [4], 88%.

As to `CC(C)C[C@@H]1CN(C[C@H](N)Cc2ccc(Cl)cc2Cl)[C@@H](CCCNCCN)CN1C(=O)Cc1ccc2ccccc2c1` [Example 18, 1-{(2R,5S)-4-[(R)-2-Amino-3-(2,4-dichloro-phenyl)-propyl]-5-[3-(2-amino-ethylamino)-propyl]-2-isobutyl-piperazin-1-yl}-2-naphthalen-2-yl-ethanone], the “average decrease in food intake compared to control animals” value in test [6] worked out at 30%. Moreover, the Ki worked out at 297 nM in [1], 188 nM in test [3], 106 nM in test [4] and 359 nM in [9]. The “average decrease in body weight compared to control animals” value in test [8] (0.1 mg/kg) is 3%; in [8] (0.3 mg/kg), 3.5%; in test [8] (1 mg/kg) it was 6.2%.

Consider `Cc1ccc(C[C@H](CN2C[C@@H](C)N(C(=O)Cc3ccc4ccccc4c3)C[C@@H]2CCCN(C)C2CCCCC2N(C)C)N(C)C)c(C)c1` (stereo partly shown) [Example 8], for which the inhibition at 1 µM stood at 28% in [1], 26% in test [2], 48% in test [3] and 52% in [4].
